Like-named read-outs stand apart in the source and are kept apart here.
Columns and labels:
HT29 cells [1] = experiment: Assay III of bioactive molecules on cell viability in vitro (CCK8); format: cell-based; conditions: Homo sapiens, HT-29; CCK8, 3-4 days (Assay III); read-out: EC50(nM), killing of HT29 cells
Description: (§1) Tumor cells HT29 (having a same source as the above) were first cultured. The bioactive molecules or fragments of the present disclosure were co-cultured with tumor cells, and then CCK8 reagent (Dojindo Laboratories (Shanghai), Cat: CK04, Lot: JJ744) was added, and the activity of dehydrogenase in mitochondria was detected by reading (detection wavelength 450 nm) on a microplate reader (manufacturer: Molecular Devices, model: SpectraMax M2), to evaluate the inhibitory effect of bioactive molecules on cell proliferation.
(§2) In vitro cell viability assay method: the tumor cells were digested by conventional methods using trypsin, and cells in tube were collected and counted, and then resuspended in the corresponding assay media (containing 2% FBS), which was added to a 96-well plate at 5000-10000 cells/well. Bioactive molecules were diluted with DMSO, and then added to a 96-well plate at 100 μL, the initial concentration was 10M, followed by 3-fold serial dilution (12 concentration gradients). The plate was incubated for 3-4 days at 37° C. under 5% CO2. Then, 20 μL of CCK8 reagent was added to each well, and the reaction was carried out for 2-6 h. The plate was read on a microplate reader (detection wavelength was 450 nm).

HT29 cells [2] = experiment: Assay I of bioactive molecules on cell viability in vitro (CCK8); format: cell-based; conditions: Homo sapiens, HT-29, CCK8; read-out: EC50(nM), killing of HT29 cells
Description: as §1, with “cells” for “cells HT29 (having a same source as the above)”, “cultured; the” for “cultured. The”, “molecules” for “molecules or fragments”
(§3) In vitro cell viability assay method: bioactive molecules (12 concentration gradients) were diluted with corresponding assay medium (containing 2% FBS). The tumor cells were digested by conventional methods using trypsin, and cells in tube were collected and counted, then resuspended in the corresponding assay media (containing 2% FBS). The diluted bioactive molecules were added to a 96-well plate, followed by the cells. Then, 20 μL of CCK8 reagent was added to each well, and the reaction was carried out for 4 h, then the plate was read on a microplate reader (detection wavelength was 450 nm). The experimental results are shown in Tables 6.1, 6.2, 6.3, 6.4, and 6.5.

LS174T cells = experiment: as above; format: cell-based; conditions: Homo sapiens, read-out: EC50(nM), killing of LS174T cells
Description: as §1, with “cells” for “cells HT29 (having a same source as the above)”, “cultured; the” for “cultured. The”, “molecules” for “molecules or fragments”
as §3

A431 = experiment: Assay II of bioactive molecules on cell viability in vitro (CCK8); format: cell-based; conditions: Homo sapiens, A-431; CCK8, 3-4 days
Description: as §1, with “NUCG-4, PC-9, HT29, NCI-H358, KYSE520, A431 and A549” for “HT29 (having a same source as the above)”, “cultured; the” for “cultured. The”
as §2, with “and then 100 μL was added to” for “and then added to”, “a 96-well plate, the initial” for “a 96-well plate at 100 μL, the initial”, “concentration was 10 μM, followed by” for “concentration was 10M, followed by”

A549 = experiment: as above; format: cell-based; conditions: Homo sapiens, CCK8, 3-4 days
Description: as §1, with “NUCG-4, PC-9, HT29, NCI-H358, KYSE520, A431 and A549” for “HT29 (having a same source as the above)”, “cultured; the” for “cultured. The”
as §2, with “and then 100 μL was added to” for “and then added to”, “a 96-well plate, the initial” for “a 96-well plate at 100 μL, the initial”, “concentration was 10 μM, followed by” for “concentration was 10M, followed by”

HT29 = experiment: as above; format: cell-based; conditions: Homo sapiens, HT-29; CCK8, 3-4 days
Description: as §1, with “NUCG-4, PC-9, HT29, NCI-H358, KYSE520, A431 and A549” for “HT29 (having a same source as the above)”, “cultured; the” for “cultured. The”
as §2, with “and then 100 μL was added to” for “and then added to”, “a 96-well plate, the initial” for “a 96-well plate at 100 μL, the initial”, “concentration was 10 μM, followed by” for “concentration was 10M, followed by”

NCI-H358 = experiment: as above; format: cell-based; conditions: Homo sapiens, CCK8, 3-4 days
Description: as §1, with “NUCG-4, PC-9, HT29, NCI-H358, KYSE520, A431 and A549” for “HT29 (having a same source as the above)”, “cultured; the” for “cultured. The”
as §2, with “and then 100 μL was added to” for “and then added to”, “a 96-well plate, the initial” for “a 96-well plate at 100 μL, the initial”, “concentration was 10 μM, followed by” for “concentration was 10M, followed by”

NUCG-4 = experiment: as above; format: cell-based; conditions: CCK8, 3-4 days
Description: as §1, with “NUCG-4, PC-9, HT29, NCI-H358, KYSE520, A431 and A549” for “HT29 (having a same source as the above)”, “cultured; the” for “cultured. The”
as §2, with “and then 100 μL was added to” for “and then added to”, “a 96-well plate, the initial” for “a 96-well plate at 100 μL, the initial”, “concentration was 10 μM, followed by” for “concentration was 10M, followed by”

PC-9 = experiment: as above; format: cell-based; conditions: Homo sapiens, CCK8, 3-4 days
Description: as §1, with “NUCG-4, PC-9, HT29, NCI-H358, KYSE520, A431 and A549” for “HT29 (having a same source as the above)”, “cultured; the” for “cultured. The”
as §2, with “and then 100 μL was added to” for “and then added to”, “a 96-well plate, the initial” for “a 96-well plate at 100 μL, the initial”, “concentration was 10 μM, followed by” for “concentration was 10M, followed by”

[3] = cited from earlier work
HCC1806 cells = experiment: Assay I of bioactive molecules on cell viability in vitro (CCK8); format: cell-based; conditions: Homo sapiens, HCC1806, 72 h; 7500 cells/well, 3 days; read-out: EC50(nM), killing of HCC1806 cells
Description: as §1, with “cells” for “cells HT29 (having a same source as the above)”, “cultured; the” for “cultured. The”, “molecules” for “molecules or fragments”
as §3

NCl-H322M cells = experiment: as above; format: cell-based; conditions: Homo sapiens, read-out: EC50(nM), killing of NCl-H322M cells
Description: as §1, with “cells” for “cells HT29 (having a same source as the above)”, “cultured; the” for “cultured. The”, “molecules” for “molecules or fragments”
as §3

PANC-1 cells = experiment: as above; format: cell-based; conditions: Homo sapiens, read-out: EC50(nM), killing of PANC-1 cells
Description: as §1, with “cells” for “cells HT29 (having a same source as the above)”, “cultured; the” for “cultured. The”, “molecules” for “molecules or fragments”
as §3

[4] = human plasma 37° C., ADC 200 μg/mL, A1.9 released from B7H3-ADC-07(DAR8), DXD from B7H3-C1-ADC-21(DAR4)
Description: The appropriate concentration of internal standard stock solution was prepared with DMSO, and then acetonitrile or other reagents were used to prepare the appropriate concentration of the internal standard-containing precipitant.
Incubation of sample: the bacteriostatic agent ProClin was added to the plasma of each genera (human, cynomolgus monkey, ICR mouse) and PBS containing 1% BSA, and the final concentration of ProClin was 0.1%, Sterile operations were adopted. 40 μL working solution of test substance and 360 μL of human plasma were mixed to prepare 200 μg/mL of incubation sample. The plate was sealed with a film, and then incubated at 37° C. under 5% CO2 in an incubator, with a shaking speed of 80 times/mm. At 0 h, 4 h, 24 h, 2 d, 3 d, 7 d, 10 d, 14 d, 17 d, 21 d and 28 d, 20 μL of plasma sample was transferred, to which was added 200 μL of precipitant (containing internal standard), and completely mixed to precipitate the proteins.
All samples were subject to protein precipitating, and then centrifuged to collect the supernatant, which was diluted with water, and analyzed by LC-MS/MS.

NCl-H358 cells = experiment: Assay I of bioactive molecules on cell viability in vitro (CCK8); format: cell-based; conditions: Homo sapiens, read-out: EC50(nM), killing of NCl-H358 cells
Description: as §1, with “cells” for “cells HT29 (having a same source as the above)”, “cultured; the” for “cultured. The”, “molecules” for “molecules or fragments”
as §3

**Q.** With `CC[C@@]1(O)C(=O)OCc2c1cc1n(c2=O)Cc2c-1nc1cc(F)c(C)cc1c2CCCOCNC(=O)CN` [Example B1.12, (S)-2-amino-N-((4-(4-ethyl-8-fluoro-4-hydroxy-9-methyl-3,14-dioxo-3,4,12,14-tetrahydro-1H-pyrano[3′,4′:6,7]indolizino[1,2-b]quinolin-11-yl)propoxy)methyl)acetamide] as the compound, how does the EC50 (HT29 cells [1]) read?
**A.** The EC50 was 85.9 nM.

**Q.** With `CC[C@@]1(O)C(=O)OCc2c1cc1n(c2=O)Cc2c-1nc1cc(F)c(C)cc1c2/C=C/COCNC(=O)CN` [Example B1.17, (S,E)-2-amino-N-(((3-(4-ethyl-8-fluoro-4-hydroxy-9-methyl-3,14-oxo-3,4,12,14-tetrahydro-1H-pyrano[3′,4′:6,7]indolizino[1,2-b]quinolin-11-yl)allyl)oxy)methyl)acetamide] as the compound, how does the EC50 (HT29 cells [1]) read?
**A.** Its EC50 is 205 nM.

**Q.** For `CCCN(CCc1c2c(nc3cc4c(cc13)OCO4)-c1cc3c(c(=O)n1C2)COC(=O)[C@]3(O)CC)C(=O)CO` [Example A1.15b, (S)—N-(2-(7-ethyl-7-hydroxy-8,11-dioxo-7,8,11,13-tetrahydro-10H-[1,3]dioxolo[4,5-g]pyrano[3′,4′:6,7]indolizino[1,2-b]quinolin-14-yl)ethyl)-2-hydroxy-N-n-propylacetamide], which EC50 (HT29 cells [2]) is on record?
**A.** The EC50 was 47.5 nM.

**Q.** What about the EC50 (LS174T cells) of the same compound?
**A.** The EC50 was 44.6 nM.

**Q.** What does the source list for `CC[C@@]1(O)C(=O)OCc2c1cc1n(c2=O)Cc2c-1nc1cc3c(cc1c2CCCOCNC(=O)CN)OCO3` [Example B1.14, (S)-2-amino-N-((3-(7-ethyl-7-hydroxy-8,11-dioxo-7,8,11,13-tetrahydro-10H-[1,3]dioxolo[4,5-g]pyrano[3′,4′:6,7]indolizino[1,2-b]quinolin-14-yl)propoxy)methyl)acetamide]?
**A.** EC50 (A431): 68 nM; EC50 (A549): 252 nM; EC50 (HT29): 368 nM; EC50 (NCI-H358): 581 nM; EC50 (NUCG-4): 185 nM; EC50 (PC-9): 34.3 nM

**Q.** With Trodelvy as the compound, how does the plasma half-life [3] read?
**A.** The plasma half-life was “less than 24 hours”.

**Q.** With `CC[C@@]1(O)C(=O)OCc2c1cc1n(c2=O)Cc2c-1nc1cc(F)c(C)c3c1c2[C@@H](NC(=O)CO)CC3` [DXD, DXd, reference compound] as the compound, how does the EC50 (HCC1806 cells) read?
**A.** Its EC50 is 37 nM.

**Q.** And the EC50 (LS174T cells)?
**A.** Its EC50 is 82 nM.

**Q.** What about the EC50 (NCl-H322M cells) of the same compound?
**A.** The EC50 was 76.9 nM.

**Q.** What about the EC50 (PANC-1 cells) of the same compound?
**A.** The EC50 was 966 nM.

**Q.** What about the EC50 (A431) of the same compound?
**A.** The EC50 was 25.1 nM.

**Q.** And the EC50 (A549)?
**A.** Its EC50 is 262 nM.

**Q.** What about the EC50 (HT29) of the same compound?
**A.** Its EC50 is 210 nM.

**Q.** What about the EC50 (NCI-H358) of the same compound?
**A.** Its EC50 is 262 nM.

**Q.** What about the EC50 (NUCG-4) of the same compound?
**A.** Its EC50 is 43.3 nM.

**Q.** And the EC50 (PC-9)?
**A.** Its EC50 is 16.7 nM.

**Q.** What about the EC50 (HT29 cells [1]) of the same compound?
**A.** Its EC50 is 22.9 nM.

**Q.** And the “Release ratio (%)” value ([4]; day 0)?
**A.** Its value is 0.348%.

**Q.** What about the “Release ratio (%)” value ([4]; day 0.17) of the same compound?
**A.** The value was 1.786%.

**Q.** What about the “Release ratio (%)” value ([4]; day 1) of the same compound?
**A.** Its value is 2.765%.

**Q.** And the “Release ratio (%)” value ([4]; day 2)?
**A.** Its value is 3.603%.

**Q.** And the “Release ratio (%)” value ([4]; day 3)?
**A.** The value was 3.763%.

**Q.** What about the “Release ratio (%)” value ([4]; day 7) of the same compound?
**A.** Its value is 4.116%.

**Q.** And the “Release ratio (%)” value ([4]; day 10)?
**A.** Its value is 5.126%.

**Q.** And the “Release ratio (%)” value ([4]; day 14)?
**A.** Its value is 5.786%.

**Q.** What about the “Release ratio (%)” value ([4]; day 17) of the same compound?
**A.** The value was 6.446%.

**Q.** What about the “Release ratio (%)” value ([4]; day 21) of the same compound?
**A.** The value was 7.494%.

**Q.** And the “Release ratio (%)” value ([4]; day 28)?
**A.** Its value is 12.659%.

**Q.** For `CCCNCCc1c2c(nc3cc4c(cc13)OCO4)-c1cc3c(c(=O)n1C2)COC(=O)[C@]3(O)CC` [Example A1.15a, (S)-7-ethyl-7-hydroxy-14-(2-(n-propylamino)ethyl)-10,13-dihydro-11H-[1,3]dioxolo[4,5-g]pyrano[3′,4′:6,7]indolizino[1,2-b]quinolin-8,11(7H)-dione], which EC50 (HT29 cells [2]) is on record?
**A.** The EC50 was 3.57 nM.

**Q.** And the EC50 (LS174T cells)?
**A.** Its EC50 is 19.5 nM.

**Q.** What about the EC50 (NCl-H358 cells) of the same compound?
**A.** Its EC50 is 3.88 nM.

**Q.** With `CC[C@@]1(O)C(=O)OCc2c1cc1n(c2=O)Cc2c-1nc1cc3c(cc1c2-c1ccc(NC(=O)CN)cc1)OCO3` [Example B1.9, (S)-2-amino-N-(4-(7-ethyl-7-hydroxy-8,11-dioxo-7,8,11,13-tetrahydro-10H-[1,3]dioxolo[4,5-g]pyrano[3′,4′:6,7]indolizino[1,2-b]quinolin-14-yl)phenyl)acetamide] as the compound, how does the EC50 (HT29 cells [1]) read?
**A.** Its EC50 is 262 nM.
